Experiments:
[1] = target: T1, Muscarinic acetylcholine receptor M1 (Homo sapiens, UniProt P11229); type: functional, cell-based
T1 sequence (P11229 whole entry): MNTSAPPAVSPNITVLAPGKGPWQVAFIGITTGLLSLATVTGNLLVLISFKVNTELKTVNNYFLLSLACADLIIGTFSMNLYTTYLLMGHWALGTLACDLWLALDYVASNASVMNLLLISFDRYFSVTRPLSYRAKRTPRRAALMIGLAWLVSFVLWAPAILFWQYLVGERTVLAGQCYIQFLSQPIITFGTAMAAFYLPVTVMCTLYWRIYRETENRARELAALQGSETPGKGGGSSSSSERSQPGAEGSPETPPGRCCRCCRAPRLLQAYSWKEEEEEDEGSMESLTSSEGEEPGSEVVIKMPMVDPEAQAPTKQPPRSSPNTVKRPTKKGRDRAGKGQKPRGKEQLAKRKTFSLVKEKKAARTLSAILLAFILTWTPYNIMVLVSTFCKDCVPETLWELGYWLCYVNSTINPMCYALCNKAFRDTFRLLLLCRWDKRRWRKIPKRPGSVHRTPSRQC

Adenosine receptor A1 = target: T2, Adenosine receptor A1 (Homo sapiens, UniProt P30542)
T2 sequence (P30542 whole entry): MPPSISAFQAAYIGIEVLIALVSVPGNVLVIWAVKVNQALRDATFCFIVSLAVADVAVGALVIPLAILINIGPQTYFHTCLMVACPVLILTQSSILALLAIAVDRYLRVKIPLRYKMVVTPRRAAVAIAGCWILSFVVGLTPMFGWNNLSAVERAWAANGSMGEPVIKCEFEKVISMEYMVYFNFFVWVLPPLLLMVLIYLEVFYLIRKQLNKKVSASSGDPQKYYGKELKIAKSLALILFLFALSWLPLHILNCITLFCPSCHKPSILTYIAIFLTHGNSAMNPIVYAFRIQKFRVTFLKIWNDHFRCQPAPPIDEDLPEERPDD

Adenosine receptor A3 = target: T3, Adenosine receptor A3 (Homo sapiens, UniProt P0DMS8)
T3 sequence (P0DMS8 whole entry): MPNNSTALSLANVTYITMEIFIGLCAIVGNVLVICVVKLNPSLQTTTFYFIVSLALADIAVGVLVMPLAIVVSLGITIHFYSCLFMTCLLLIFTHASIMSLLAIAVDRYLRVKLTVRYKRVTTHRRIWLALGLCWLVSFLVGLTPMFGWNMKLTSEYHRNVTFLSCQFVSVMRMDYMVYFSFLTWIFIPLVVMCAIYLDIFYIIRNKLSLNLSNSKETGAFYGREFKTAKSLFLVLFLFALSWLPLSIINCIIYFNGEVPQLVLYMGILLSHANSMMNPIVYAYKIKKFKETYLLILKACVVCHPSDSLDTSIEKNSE

[2] = target: T4, Alpha-2C adrenergic receptor (Homo sapiens, UniProt P18825); type: functional
T4 sequence (P18825 whole entry): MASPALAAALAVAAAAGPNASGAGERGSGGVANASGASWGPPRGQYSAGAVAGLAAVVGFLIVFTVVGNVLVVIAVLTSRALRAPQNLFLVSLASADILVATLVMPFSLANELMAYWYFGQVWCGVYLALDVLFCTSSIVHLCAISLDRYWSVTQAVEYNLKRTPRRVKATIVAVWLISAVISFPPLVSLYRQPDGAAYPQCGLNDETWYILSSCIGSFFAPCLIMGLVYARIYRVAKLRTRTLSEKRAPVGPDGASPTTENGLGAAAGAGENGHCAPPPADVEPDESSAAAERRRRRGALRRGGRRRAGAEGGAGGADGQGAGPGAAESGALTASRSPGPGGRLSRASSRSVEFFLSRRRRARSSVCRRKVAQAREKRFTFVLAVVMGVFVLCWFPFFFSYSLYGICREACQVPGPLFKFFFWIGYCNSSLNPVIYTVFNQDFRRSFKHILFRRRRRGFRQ

[3] = target: Neuronal acetylcholine receptor subunit alpha-4 (Homo sapiens, UniProt P43681)
[4] = target: Growth hormone secretagogue receptor type 1 (Homo sapiens, UniProt Q92847)
[5] = target: T5, 5-hydroxytryptamine receptor 2C (Homo sapiens, UniProt P28335)
T5 sequence (P28335 whole entry): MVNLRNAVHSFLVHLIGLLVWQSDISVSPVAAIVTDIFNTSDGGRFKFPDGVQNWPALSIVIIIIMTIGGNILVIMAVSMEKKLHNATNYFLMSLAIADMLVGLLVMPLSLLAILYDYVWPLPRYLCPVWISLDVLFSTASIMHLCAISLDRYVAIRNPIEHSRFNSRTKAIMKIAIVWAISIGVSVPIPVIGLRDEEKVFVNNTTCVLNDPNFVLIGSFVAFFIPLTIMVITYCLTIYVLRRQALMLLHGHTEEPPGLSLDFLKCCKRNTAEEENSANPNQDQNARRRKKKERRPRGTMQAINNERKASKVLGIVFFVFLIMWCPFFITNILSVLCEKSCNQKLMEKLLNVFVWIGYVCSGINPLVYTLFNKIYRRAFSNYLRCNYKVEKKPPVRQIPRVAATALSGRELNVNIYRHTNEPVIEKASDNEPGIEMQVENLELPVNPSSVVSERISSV

Melanocortin receptor 3 = Melanocortin receptor 3 (Homo sapiens, UniProt P41968)
Motilin receptor = Motilin receptor (Homo sapiens, UniProt O43193)
[6] = target: Delta-type opioid receptor (Homo sapiens, UniProt P41143)
Thromboxane A2 receptor = target: T6, Thromboxane A2 receptor (Homo sapiens, UniProt P21731)
T6 sequence (P21731 whole entry): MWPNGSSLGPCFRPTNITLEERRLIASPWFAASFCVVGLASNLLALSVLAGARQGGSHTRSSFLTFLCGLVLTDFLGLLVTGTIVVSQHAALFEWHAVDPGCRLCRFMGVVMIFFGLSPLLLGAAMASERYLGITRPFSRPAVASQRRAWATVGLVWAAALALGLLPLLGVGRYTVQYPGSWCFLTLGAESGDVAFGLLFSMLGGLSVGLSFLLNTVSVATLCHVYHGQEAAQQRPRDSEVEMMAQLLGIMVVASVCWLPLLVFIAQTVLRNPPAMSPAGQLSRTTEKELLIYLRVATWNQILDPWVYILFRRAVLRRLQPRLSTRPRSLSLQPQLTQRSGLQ

[7] = target: Sodium-dependent dopamine transporter (Homo sapiens, UniProt Q01959)
Also: assay procedure not described here.

Sequence of Neuronal acetylcholine receptor subunit alpha-4 (P43681 whole entry): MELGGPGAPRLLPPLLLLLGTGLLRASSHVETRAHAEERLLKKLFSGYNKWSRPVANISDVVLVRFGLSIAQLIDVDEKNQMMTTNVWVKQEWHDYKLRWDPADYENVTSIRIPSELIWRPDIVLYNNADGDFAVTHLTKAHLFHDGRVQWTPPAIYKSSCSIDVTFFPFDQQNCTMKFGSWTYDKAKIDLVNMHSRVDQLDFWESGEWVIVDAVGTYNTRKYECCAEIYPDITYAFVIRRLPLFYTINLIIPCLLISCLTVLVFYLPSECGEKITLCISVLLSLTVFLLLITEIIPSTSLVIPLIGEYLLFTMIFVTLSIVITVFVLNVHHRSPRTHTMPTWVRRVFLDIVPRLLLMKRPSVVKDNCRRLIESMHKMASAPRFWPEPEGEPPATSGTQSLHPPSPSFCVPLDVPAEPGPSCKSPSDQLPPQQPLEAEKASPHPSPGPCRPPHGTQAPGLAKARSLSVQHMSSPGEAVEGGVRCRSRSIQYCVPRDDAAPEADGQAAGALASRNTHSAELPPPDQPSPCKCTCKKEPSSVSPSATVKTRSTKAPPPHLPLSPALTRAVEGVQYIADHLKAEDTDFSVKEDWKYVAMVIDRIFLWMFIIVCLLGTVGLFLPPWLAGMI
Sequence of Motilin receptor (O43193 whole entry): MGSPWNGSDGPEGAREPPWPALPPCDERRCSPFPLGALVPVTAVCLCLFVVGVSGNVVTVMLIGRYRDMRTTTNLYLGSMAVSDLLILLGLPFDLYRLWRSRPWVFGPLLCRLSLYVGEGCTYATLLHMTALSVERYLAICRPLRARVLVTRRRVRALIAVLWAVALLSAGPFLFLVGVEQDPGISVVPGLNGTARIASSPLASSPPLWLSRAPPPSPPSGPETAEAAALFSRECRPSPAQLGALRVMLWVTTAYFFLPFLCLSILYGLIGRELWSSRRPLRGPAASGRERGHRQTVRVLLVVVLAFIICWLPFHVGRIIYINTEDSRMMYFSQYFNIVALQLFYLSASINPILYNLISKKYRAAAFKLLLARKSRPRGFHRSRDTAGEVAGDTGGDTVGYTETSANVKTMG
Sequence of Delta-type opioid receptor (P41143 whole entry): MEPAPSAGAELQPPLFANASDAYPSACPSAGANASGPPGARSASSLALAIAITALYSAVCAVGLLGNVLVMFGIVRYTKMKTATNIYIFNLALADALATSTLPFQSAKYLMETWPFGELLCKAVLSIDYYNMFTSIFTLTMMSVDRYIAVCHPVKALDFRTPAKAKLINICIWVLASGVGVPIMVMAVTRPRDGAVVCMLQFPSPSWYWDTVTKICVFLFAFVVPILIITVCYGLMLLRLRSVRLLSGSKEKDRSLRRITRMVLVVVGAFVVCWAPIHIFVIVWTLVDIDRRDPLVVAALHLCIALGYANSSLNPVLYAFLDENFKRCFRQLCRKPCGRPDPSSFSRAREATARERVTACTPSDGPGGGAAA
Sequence of Sodium-dependent dopamine transporter (Q01959 whole entry): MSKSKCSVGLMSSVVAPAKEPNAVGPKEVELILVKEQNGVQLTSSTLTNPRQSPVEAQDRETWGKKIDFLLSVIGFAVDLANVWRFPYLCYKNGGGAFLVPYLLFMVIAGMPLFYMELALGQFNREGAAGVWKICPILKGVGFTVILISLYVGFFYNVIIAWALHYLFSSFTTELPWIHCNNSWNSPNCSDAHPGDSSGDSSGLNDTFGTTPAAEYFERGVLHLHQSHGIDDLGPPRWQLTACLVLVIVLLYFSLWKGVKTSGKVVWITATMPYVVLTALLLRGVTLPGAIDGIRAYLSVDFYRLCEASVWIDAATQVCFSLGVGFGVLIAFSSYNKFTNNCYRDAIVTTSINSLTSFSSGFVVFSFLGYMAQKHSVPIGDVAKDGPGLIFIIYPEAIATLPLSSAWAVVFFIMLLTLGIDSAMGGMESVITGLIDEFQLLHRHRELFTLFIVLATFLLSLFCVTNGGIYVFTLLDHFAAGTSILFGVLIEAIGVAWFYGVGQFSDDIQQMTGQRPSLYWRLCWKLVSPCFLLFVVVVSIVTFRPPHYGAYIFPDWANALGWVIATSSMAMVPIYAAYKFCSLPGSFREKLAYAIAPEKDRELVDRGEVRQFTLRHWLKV
Sequence of Melanocortin receptor 3 (P41968 whole entry): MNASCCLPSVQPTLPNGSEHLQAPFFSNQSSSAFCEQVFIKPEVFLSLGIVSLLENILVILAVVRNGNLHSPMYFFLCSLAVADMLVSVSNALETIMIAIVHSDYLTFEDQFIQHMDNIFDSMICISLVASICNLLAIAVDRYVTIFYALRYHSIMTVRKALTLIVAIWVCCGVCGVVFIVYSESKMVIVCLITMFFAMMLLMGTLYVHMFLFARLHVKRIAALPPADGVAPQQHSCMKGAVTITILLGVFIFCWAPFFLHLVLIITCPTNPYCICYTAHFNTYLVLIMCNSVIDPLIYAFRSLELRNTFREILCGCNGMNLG
Sequence of Growth hormone secretagogue receptor type 1 (Q92847 whole entry): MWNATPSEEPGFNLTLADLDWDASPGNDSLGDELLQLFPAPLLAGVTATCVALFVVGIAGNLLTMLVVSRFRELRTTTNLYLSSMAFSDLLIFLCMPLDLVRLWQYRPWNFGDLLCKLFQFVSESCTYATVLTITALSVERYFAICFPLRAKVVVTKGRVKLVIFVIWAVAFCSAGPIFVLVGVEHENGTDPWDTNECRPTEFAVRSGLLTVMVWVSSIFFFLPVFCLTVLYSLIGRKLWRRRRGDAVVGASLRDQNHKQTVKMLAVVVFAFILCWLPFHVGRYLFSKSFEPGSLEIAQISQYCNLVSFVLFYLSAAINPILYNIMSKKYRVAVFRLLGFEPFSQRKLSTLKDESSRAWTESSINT

Row | SMILES | AC50 [1] [µM] | AC50 (Adenosine receptor A1) [µM] | AC50 (Adenosine receptor A3) [µM] | AC50 [2] [µM] | AC50 [3] [µM] | AC50 [4] [µM] | AC50 [5] [µM] | AC50 (Melanocortin receptor 3) [µM] | AC50 (Motilin receptor) [µM] | AC50 [6] [µM] | AC50 (Thromboxane A2 receptor) [µM] | AC50 [7] [µM]
1 | CC[C@@H]1C[C@]1(NC(=O)[C@@H]1C[C@@H]2CN1C(=O)[C@H](C(C)(C)C)NC(=O)OCC(C)(C)CCCCc1cccc3c1CN(C3)C(=O)O2)C(=O)NS(=O)(=O)C1CC1 | 23.4 | – | – | – | – | – | – | – | – | – | – | –
2 | CC(=O)NO [ACETOHYDROXAMIC ACID] | > 30 | – | – | – | – | – | – | – | – | – | – | –
3 | CC(=O)NCCCCCC(=O)O [ACEXAMIC ACID] | > 30 | – | – | – | – | – | – | – | – | – | – | –
4 | C=C(C)CNc1ccc(C(C)C(=O)O)cc1 (stereo unspecified) [ALMINOPROFEN] | > 30 | – | – | – | – | – | – | – | – | – | – | –
5 | C[C@H]1CN(C[C@H](Cc2ccccc2)C(=O)NCC(=O)O)CC[C@@]1(C)c1cccc(O)c1 [ALVIMOPAN] | > 30 | – | – | – | – | – | – | – | – | – | – | –
6 | Cc1nc(Nc2ncc(C(=O)Nc3c(C)cccc3Cl)s2)cc(N2CCN(CCO)CC2)n1 [DASATINIB] | – | > 30 | 21.5 | 19 | > 30 | > 30 | 14.1 | > 30 | > 30 | 9.76 | > 10 | 25.3
7 | C[C@H]1O[C@@H](O[C@H]2CC[C@@]3(C)[C@H](CC[C@@H]4[C@@H]3C[C@@H](O)[C@]3(C)[C@@H](C5=CC(=O)OC5)CC[C@]43O)C2)C[C@H](O)[C@@H]1O[C@H]1C[C@H](O)[C@H](O[C@H]2C[C@H](O)[C@H](O[C@@H]3O[C@H](CO)[C@@H](O)[C@H](O)[C@H]3O)[C@@H](C)O2)[C@@H](C)O1 [DESLANOSIDE] | > 30 | – | – | – | – | – | – | – | – | – | – | –
8 | O=C(O)Cc1ccccc1Nc1c(Cl)cccc1Cl [DICLOFENAC] | – | > 30 | > 30 | > 10 | > 10 | > 30 | > 10 | > 30 | > 10 | > 30 | > 30 | > 30
9 | CC[C@H]1OC(=O)[C@H](C)[C@@H](O[C@H]2C[C@@](C)(OC)[C@@H](O)[C@H](C)O2)[C@H](C)[C@@H](O[C@@H]2O[C@H](C)C[C@H](N(C)C)[C@H]2O)[C@](C)(O)C[C@@H](C)[C@@H]2N[C@@H](COCCOC)O[C@H]([C@H]2C)[C@]1(C)O [DIRITHROMYCIN] | > 30 | – | – | – | – | – | – | – | – | – | – | –
10 | CCCCc1oc2ccc(NS(C)(=O)=O)cc2c1C(=O)c1ccc(OCCCN(CCCC)CCCC)cc1 [DRONEDARONE] | > 30 | – | – | – | – | – | – | – | – | – | – | –
11 | CC(C)C(=O)Oc1ccc(CO)cc1[C@H](CCN(C(C)C)C(C)C)c1ccccc1 [FESOTERODINE] | > 30 | – | – | – | – | – | – | – | – | – | – | –
12 | Cc1ccc(C)c(OCCCC(C)(C)C(=O)O)c1 [GEMFIBROZIL] | – | > 30 | > 30 | > 10 | > 10 | > 30 | > 30 | > 30 | > 10 | > 30 | > 30 | > 10
13 | CCCCCCCN(CC)CCCC(O)c1ccc(NS(C)(=O)=O)cc1 (stereo unspecified) [IBUTILIDE] | – | > 30 | > 30 | 3.2 | > 30 | > 30 | > 30 | > 30 | > 30 | > 30 | > 30 | > 30
14 | CC[C@H](C)C(=O)O[C@H]1C[C@@H](C)C=C2C=C[C@H](C)[C@H](CC[C@@H]3C[C@@H](O)CC(=O)O3)[C@H]21 [LOVASTATIN] | – | > 30 | 28.5 | > 10 | > 10 | > 30 | > 30 | > 30 | > 10 | > 30 | 12 | > 10
15 | CC[C@@H](CO)NC(=O)[C@@H]1C=C2c3cccc4c3c(cn4C)C[C@H]2N(C)C1 [METHYSERGIDE] | – | > 30 | > 30 | 3.5 | > 10 | > 30 | 0.0082 | > 30 | > 10 | > 30 | 24.5 | > 30
16 | CNC(=C[N+](=O)[O-])NCCSCc1csc(CN(C)C)n1 [NIZATIDINE] | – | > 10 | > 10 | > 10 | > 10 | > 10 | > 30 | > 10 | > 10 | > 30 | > 10 | > 10
17 | CC(CN1c2ccccc2Sc2ccccc21)N(C)C (stereo unspecified) [PROMETHAZINE] | – | > 30 | > 30 | 3 | > 10 | > 30 | 0.5 | 31.9 | > 10 | > 30 | > 30 | > 10
18 | CCCc1cc(=O)[nH]c(=S)[nH]1 [PROPYLTHIOURACIL] | – | > 10 | > 10 | > 10 | > 10 | > 10 | > 30 | > 10 | > 10 | > 30 | > 10 | > 10
19 | Cn1cc(C(=O)[C@@H]2CCc3nc[nH]c3C2)c2ccccc21 [RAMOSETRON] | – | > 30 | > 30 | 11 | > 30 | > 30 | > 30 | > 30 | > 30 | > 30 | > 30 | > 30
20 | CN(CCOc1ccc(CC2SC(=O)NC2=O)cc1)c1ccccn1 (stereo unspecified) [ROSIGLITAZONE] | – | > 30 | > 30 | > 30 | > 30 | > 30 | > 30 | 20.8 | > 30 | > 30 | > 30 | > 30
21 | CC(C)[C@H](N)C(=O)OCCOCn1cnc2c(=O)[nH]c(N)nc21 [VALACYCLOVIR] | – | > 30 | > 30 | > 10 | > 10 | > 30 | > 30 | > 30 | > 10 | > 30 | > 30 | > 10
